Assay results reported in BindingDB's records for doi:10.1021/jm980290i (Research Triangle Institute, 1998).

Experiment: Inhibition of [35S]GTP-gamma-S, binding in guinea pig caudate stimulated by SNC80 (Opioid receptor delta 1)

Compound: C[C@H]1C2CCCC1(c1cccc(O)c1)CCN2CCc1ccccc1 (stereo partly drawn) [3-((R)-9-Methyl-2-phenethyl-2-aza-bicyclo[3.3.1]non-5-yl)-phenol]
- Ki: 13 nM
